According to US20140178432A1, “PRODUCTION OF DENSE BODIES (DB) FROM HCMV-INFECTED CELLS” (priority 2011, published 2014):
Entries after “also recorded” stand apart in the source; their conditions may differ.

Assays:
Type in all cases: cell-based, human cytomegalovirus (HCMV)
HCMV strain AD169 = assay: Dense Body (DB) production in human foreskin fibroblasts infected with HCMV strain AD169, electron microscopy; conditions: for infectious virus particles in the cytoplasm of treated cells / accumulation of DB in the cytoplasm (electron microscope): HFF infected with HCMV AD169, 5 days incubation, A: 50 nmol/l, B: 5 nmol/l, C: 500 nmol/l, D: 500 nmol/l; for infectious virus particles in the cytoplasm of treated cells: untreated cells relatively large numbers; for accumulation of DB in the cytoplasm (electron microscope): untreated cells virtually no DB; for concentration that led to optimal results (DB production): HFF infected with HCMV strain AD169
Procedure: (§1) Human foreskin fibroblasts (“human foreskin fibroblasts, HFF”) were added in an amount of 1×10^6 cells per flask in 5 T75-cell culture flasks on the day before the infection. The HCMV strain AD 169 was prepared as a frozen, cell-free virus preparation that was obtained from cells that were present in a late stage of infection. The substances (A), (B), (C), and (D) according to the invention were provided as stock solutions of 50 mmol/l each in DMSO.
The stock solutions were diluted 1:1000 to a final concentration of 50 μmol/l. The solutions were further diluted as follows: A: 1:1000 (50 nmol/l) 12 μml in 12 ml of MEM; B: 1:10,000 (5 nmol/l) 1.2 μml in 12 ml of MEM; C: 1:100 (500 nmol/l) 120 μml in 12 ml of MEM; D: 1,100 (500 nmol/l) 120 μml in 12 ml of MEM.
(§2) The HFF cells were incubated for one hour with the virus preparation at a m.o.i. (“multiplicity of infection”) of ≧≧1 TCID 50/cell (1:20 dilution). Then, the virus supernatant was removed, and an incubation of the infected cells was carried out with the substances according to the invention at the following concentrations: A: 50 nmol/l; B: 5 nmol/l; C: 500 nmol/l; D: 500 nmol/l.
(§3) The cells were incubated for 5 days, whereby a renewal of the substance-containing medium was performed after the first and fourth days. After the incubation, the infected cells were examined by electron microscope in the formation of DB.

HCMV strain TB40/E = assay: Dense Body (DB) production in HUVEC infected with HCMV strain TB40/E, electron microscopy; conditions: for virions in the cytoplasm of the treated batch / concentration of DB in the cytoplasm of the infected cells (electron microscope): HUVEC infected with HCMV TB40/E, A: 300 nmol/l, B: 300 nmol/l, C: 3 μmol/l; for concentration of DB in the cytoplasm of the infected cells (electron microscope): control only a few DB; for concentration that led to optimal results (DB production): HUVEC infected with HCMV strain TB40/E
Procedure: as §1, §2, §3
In another experiment, human endothelial cells from the umbilical vein (HUVEC) were infected with the HCMV strain TB40/E, which was isolated from cells in a late stage of infection. The experimental design corresponds to the one shown under 2.1, whereby the incubation of cells was carried out at the following concentrations of the substances according to the invention: A: 300 nmol/l; B: 300 nmol/l: C: 3 μmol/l; D: […].

clinical HCMV isolate = assay: Dense Body (DB) production in HFF infected with a clinical HCMV isolate, co-cultured with non-infected HFF, electron microscopy; conditions: HFF infected with a clinical isolate of HCMV, co-culture with non-infected HFF
Procedure: HFF were infected with a clinical HCMV isolate, which was isolated from cells in a late stage of infection, as further described above under 2.1. The infected HFF were co-cultivated with non-infected HFF in mini-trays (3,000 cells/recess). Three different ratios of infected/non-infected cells were produced: undiluted; 1:2 diluted; 1:4 diluted. The substances according to the invention were incubated with the cells at the following concentrations: A: 300 nmol/l; B: 300 nmol/l; C: 3 μmol/l; D: 30 μmol/l.
After 5 days of incubation at 37° C., the electron-microscopic study was carried out. […] The greater the dilution with non-infected cells, the fewer DB accumulated in the cytoplasm. In the control batch without a substance according to the invention, only very few DB could be identified. Moreover, the ejection of infectious particles from the cell nucleus was prevented in turn by the addition of the substances according to the invention.

| SMILES | infectious virus particles in the cytoplasm of treated cells (HCMV strain AD169) | accumulation of DB in the cytoplasm (electron microscope) (HCMV strain AD169) | concentration that led to optimal results (DB production) (HCMV strain AD169) | virions in the cytoplasm of the treated batch (HCMV strain TB40/E) | concentration of DB in the cytoplasm of the infected cells (electron microscope) (HCMV strain TB40/E) | concentration that led to optimal results (DB production) (HCMV strain TB40/E) | concentration that led to good results (DB production) (clinical HCMV isolate) |
| --- | --- | --- | --- | --- | --- | --- | --- |
| N#CC1(C(=O)Nc2cc(F)cc(NS(=O)(=O)c3ccc(-c4noc(-c5cccc(N)n5)n4)cc3)c2)CC1 [substance (D), N-{3-[({4-[5-(6-aminopyridin-2yl)-1,2,4-oxadiazol-3-yl]phenyl}sulfonyl)amino]-5-fluorophenyl}-1-cyanocyclopropane carboxamide] | no single infectious virus particle was to be found | large amounts of DB; also recorded: high concentrations of DB | 500 nmol/L | no virions could be detected | strong concentration of DB | 30 µmol/L | 30 µmol/L |
| COc1c(N2CCC(C(=O)O)CC2)c(F)cc2c(=O)c(C(=O)NCc3ccc(OC(F)(F)F)cc3C)cn(CC(F)(F)F)c12 [substance (C), 1-[6-fluoro-8-methoxy-3-({[2-methyl-4-(trifluoromethoxy)benzyl]amino}carbonyl)-4-oxo-1-(2,2,2-trifluoroethyl)-1,4-dihydroquinolin-7-yl]piperidine-4-carboxylic acid] | no single infectious virus particle was to be found | large amounts of DB; also recorded: high concentrations of DB | 500 nmol/L | no virions could be detected | strong concentration of DB | 3 µmol/L | 3 µmol/L |
| COc1cccc(N2CCN(C3=Nc4c(F)cccc4[C@H](CC(=O)O)N3c3cc(C(F)(F)F)ccc3OC)CC2)c1 [substance (A), (4S)-{8-fluoro-2-[4-(3-methoxyphenyl)-1-piperazinyl]-3-[2-methoxy-5-(trifluoromethyl)-phenyl]-3,4-dihydro-4-quinazolinyl}acetic acid] | no single infectious virus particle was to be found | large amounts of DB; also recorded: high concentrations of DB | 50 nmol/L | no virions could be detected | strong concentration of DB | 0.3 µmol/L | 0.3 µmol/L |
| Cc1ccc(N2CCN(C(=O)c3nc(NC(=O)Nc4ccc(OC(F)(F)F)cc4)cn3C)CC2)nc1 [substance (B), N-{1-methyl-2-[(4-(5-methyl-pyridin-2-yl)-piperazin-1-yl)carbonyl]-1H-imidazol-4-yl}-N′-[4-(trifluoromethoxy)phenyl]urea] | no single infectious virus particle was to be found | large amounts of DB; also recorded: high concentrations of DB | 5 nmol/L | no virions could be detected | strong concentration of DB | 0.3 µmol/L | 0.3 µmol/L |
